This passage reports remaining activity and IC50 results from US11149022B2, “Antagonists of the muscarinic acetylcholine receptor M4” (Vanderbilt University, priority 2017, dated 2021).

The IC50 is the concentration needed to halve the response being measured.

Where only a bound is given, the exact number is not on record here.

The target in this test is T1, Human M4 (Homo sapiens, UniProt P08173).
T1 construct: expressed in transfected cells; host or cells: CHO-K1 (ATCC), stably co-expressing chimeric G protein Gqi5
T1 sequence (P08173 1-479): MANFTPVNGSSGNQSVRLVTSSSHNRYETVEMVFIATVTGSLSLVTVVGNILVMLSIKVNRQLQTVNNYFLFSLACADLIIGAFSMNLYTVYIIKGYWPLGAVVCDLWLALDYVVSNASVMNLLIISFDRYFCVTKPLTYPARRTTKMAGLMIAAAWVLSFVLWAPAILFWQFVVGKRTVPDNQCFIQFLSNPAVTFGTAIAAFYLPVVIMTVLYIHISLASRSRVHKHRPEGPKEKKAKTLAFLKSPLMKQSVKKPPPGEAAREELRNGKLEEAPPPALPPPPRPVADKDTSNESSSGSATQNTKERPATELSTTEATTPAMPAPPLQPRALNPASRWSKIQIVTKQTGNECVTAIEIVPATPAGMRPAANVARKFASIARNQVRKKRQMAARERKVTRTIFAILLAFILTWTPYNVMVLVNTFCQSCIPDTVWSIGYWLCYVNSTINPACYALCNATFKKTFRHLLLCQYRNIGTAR
Description: mAChR M4 cell-based functional assay (calcium flux, antagonist mode). Conditions: for remaining activity at 30 µM: % ACh maximum at 30 μM, read-out: Emin; for IC50: M4/Gqi5/CHO-K1 cells, concentration-dependent decrease of the EC80 acetylcholine response. The procedure: Human or rat M4 cDNA, along with the chimeric G protein Gqi5, were transfected into Chinese hamster ovary (CHO-K1) cells purchased from the American Type Culture Collection using Lipofectamine2000. M4/Gqi5/CHO cells were grown in Ham's F-12 medium containing 10% heat-inactivated fetal bovine serum (FBS), 20 mM HEPES, 500 μg/mL G418 sulfate, and 200 μg/mL Hygromycin B.
For high throughput measurement of agonist-evoked increases in intracellular calcium, CHO-K1 cells stably expressing muscarinic receptors were plated in growth medium lacking G418 and hygromycin at 15,000 cells/20 μL/well in Greiner 384-well black-walled, tissue culture (TC)-treated, clear-bottom plates (VWR). Cells were incubated overnight at 37° C. and 5% CO2. The next day, cells were washed using an ELX 405 (BioTek) with assay buffer; the final volume was then aspirated to 20 μL, Next, 20 μL of a 2.3 μM stock of Fluo-4/acetoxymethyl ester (Invitrogen, Carlsbad, Calif.), prepared as a 2.3 μM stock in DMSO, mixed in a 1:1 ratio with 10% (w/v) Pluronic F-127 and diluted in assay buffer, was added to the wells and the cell plates were incubated for 50 min at 37° C. and 5% CO2. Dye was removed by washing with the ELX 405 and the final volume was aspirated to […]. Compound master plates were formatted in a 10 point concentration-response curve (CRC) format (1:3 dilutions) in 100% DMSO with a starting concentration of 10 or 1 mM using a BRAVO liquid handler (Agilent). Test compound CRCs were then transferred to daughter plates (240 nL) using the Echo acoustic plate reformatter (Labcyte, Sunnyvale, Calif.) and then diluted into assay buffer (40 μL) to a 2× stock using a Thermo Fisher Combi (Thermo Fisher Scientific, Waltham, Mass.).
Calcium flux was measured using the Functional Drug Screening System (FDSS) 6000 or 7000 (Hamamatsu Corporation, Tokyo, Japan) as an increase in the fluorescent static ratio. Compounds were applied to cells (20 μL, 2×) using the automated system of the FDSS at 2 seconds into the protocol and the data were collected at 1 Hz. At 143 s, 10 μL of an EC20 concentration of the muscarinic receptor agonist acetylcholine was added (5×), followed by the addition of 12 μL of an EC80 concentration of acetylcholine at the 268 s time point (5×). Agonist activity was analyzed as a concentration-dependent increase in calcium mobilization upon compound addition. Positive allosteric modulator activity was analyzed as a concentration-dependent increase in the EC20 acetylcholine response. Antagonist activity was analyzed as a concentration-dependent decrease in the EC80 acetylcholine response; for the purposes of the tables herein, an […] (inhibitory concentration 50) was calculated as a concentration-dependent decrease of the response elicited by an EC80 concentration of acetylcholine. Concentration-response curves were generated using a four-parameter logistical equation in XLFit curve fitting software (IDBS, Bridgewater, N.J.) for Excel (Microsoft, Redmond, Wash.) or Prism (GraphPad Software, Inc., San Diego, Calif.) or the Dotmatics software platform (Dotmatics, Bishop's Stortford, UK).
Compounds were synthesized as described above. Activity (IC50 and Emin) was determined in the mAChR M4 cell-based functional assay as described above and the data are shown in Table 4.

For the compound `Fc1ccc(Cl)c(-c2ccc(OC3CC4(CCN(Cc5ccccc5)CC4)C3)nn2)c1` [Compound 22, 7-benzyl-2-[6-(2-chloro-5-fluoro-phenyl)pyridazin-3-yl]oxy-7-azaspiro[3.5]nonane], the remaining activity at 30 µM was 3.34% and the IC50 was found to be 1270 nM.
In the case of `Fc1ccc(Cl)c(-c2ccc(OC3CC4(CCN(CC5CCOCC5)CC4)C3)nn2)c1` [Compound 19, 2-[6-(2-chloro-5-fluoro-phenyl)pyridazin-3-yl]oxy-7-(tetrahydropyran-4-ylmethyl)-7-azaspiro[3.5]nonane], the remaining activity at 30 µM is 3.47% and the IC50 came out at 1140 nM.
With `Cc1cnn(C)c1-c1ccc(NC2CC3(CCN(CC(C)C(C)(C)C)CC3)C2)nn1` (stereo not drawn) [Compound 9, N-[6-(2,4-dimethylpyrazol-3-yl)pyridazin-3-yl]-7-(2,3,3-trimethylbutyl)-7-azaspiro[3.5]nonan-2-amine], the remaining activity at 30 µM was 3.11% and the IC50 was 220 nM.
Consider `Cc1cnn(C)c1-c1ccc(NC2CC3(CCN(CC4CC5C=CC4C5)CC3)C2)nn1` (stereo not drawn) [Compound 8, 7-(5-bicyclo[2.2.1]hept-2-enylmethyl)-N-[6-(2,4-dimethylpyrazol-3-yl)pyridazin-3-yl]-7-azaspiro[3.5]nonan-2-amine], for which the remaining activity at 30 µM came out at 2.86% and the IC50 was 10 nM.
Consider `CC(C)(C)CCN1CCC2(CC1)CC(CNc1ccc(-c3cc(F)ccc3Cl)nn1)C2` [Compound 41, 6-(2-chloro-5-fluoro-phenyl)-N-[[7-(3,3-dimethylbutyl)-7-azaspiro[3.5]nonan-2-yl]methyl]pyridazin-3-amine], for which the remaining activity at 30 µM came to 2.42% and the IC50 was 470 nM.
On to `Cc1nn(C)cc1-c1ccc(NC2CC3(CCN(CC4CC5C=CC4C5)CC3)C2)nn1` (stereo not drawn) [Compound 3, 7-(5-bicyclo[2.2.1]hept-2-enylmethyl)-N-[6-(1,3-dimethylpyrazol-4-yl)pyridazin-3-yl]-7-azaspiro[3.5]nonan-2-amine], for which the remaining activity at 30 µM amounted to 3.12% and the IC50 was found to be 10 nM.
With `Cc1cnn(C)c1-c1ccc(NC2CC3(CCN(CC4CCOCC4)CC3)C2)nn1` [Compound 10, N-[6-(2,4-dimethylpyrazol-3-yl)pyridazin-3-yl]-7-(tetrahydropyran-4-ylmethyl)-7-azaspiro[3.5]nonan-2-amine], the remaining activity at 30 µM turned out to be 23.1% and the IC50 was more than 10000 nM.
Take `Cc1nn(C)cc1-c1ccc(NCC2CC3(CCN(CC4CCCOC4)CC3)C2)nn1` (stereo not drawn) [Compound 51, 6-(1,3-dimethylpyrazol-4-yl)-N-[[7-(tetrahydropyran-3-ylmethyl)-7-azaspiro[3.5]nonan-2-yl]methyl]pyridazin-3-amine]: the remaining activity at 30 µM was found to be 37.6% and the IC50 was more than 10000 nM.
For the compound `Cc1cccnc1CN1CCC2(CC1)CC(Oc1ccc(-c3c(C)cnn3C)nn1)C2` [Compound 38, 2-[6-(2,4-dimethylpyrazol-3-yl)pyridazin-3-yl]oxy-7-[(3-methyl-2-pyridyl)methyl]-7-azaspiro[3.5]nonane], the remaining activity at 30 µM is 14.8% and the IC50 stood at 7720 nM.
Consider `Cc1cnn(C)c1-c1ccc(OC2CC3(CCN(CC(C)C(C)(C)C)CC3)C2)nn1` (stereo not drawn) [Compound 33, 2-[6-(2,4-dimethylpyrazol-3-yl)pyridazin-3-yl]oxy-7-(2,3,3-trimethylbutyl)-7-azaspiro[3.5]nonane], for which the remaining activity at 30 µM worked out at 3.87% and the IC50 amounted to 250 nM.
`Fc1ccc(Cl)c(-c2ccc(OCC3CC4(CCN(CC5CCCOC5)CC4)C3)nn2)c1` (stereo not drawn) [Compound 63, 2-[[6-(2-chloro-5-fluoro-phenyl)pyridazin-3-yl]oxymethyl]-7-(tetrahydropyran-3-ylmethyl)-7-azaspiro[3.5]nonane]: the remaining activity at 30 µM was 7.8% and the IC50 amounted to 2130 nM.
In the case of `Cc1nn(C)cc1-c1ccc(OC2CC3(CCN(CC(C)C(C)(C)C)CC3)C2)nn1` (stereo not drawn) [Compound 25, 2-[6-(1,3-dimethylpyrazol-4-yl)pyridazin-3-yl]oxy-7-(2,3,3-triniethylbutyl)-7-azaspiro[3.5]nonane], the remaining activity at 30 µM came to 3.1% and the IC50 amounted to 210 nM.
For `Cc1nn(C)cc1-c1ccc(OC2CC3(CCN(Cc4ccccc4)CC3)C2)nn1` [Compound 30, 7-benzyl-2-[6-(1,3-dimethylpyrazol-4-yl)pyridazin-3-yl]oxy-7-azaspiro[3.5]nonane], in that order: 5.31% and 1630 nM.
`Cc1cccnc1CN1CCC2(CC1)CC(Oc1ccc(-c3cc(F)ccc3Cl)nn1)C2` [Compound 23, 2-[6-(2-chloro-5-fluoro-phenyl)pyridazin-3-yl]oxy-7-[(3-methyl-2-pyridyl)methyl]-7-azaspiro[3.5]nonane]: the remaining activity at 30 µM came to 3.36% and the IC50 came to 900 nM.
As for `Fc1ccc(Cl)c(-c2ccc(NCC3CC4(CCN(CC5CC6C=CC5C6)CC4)C3)nn2)c1` (stereo not drawn) [Compound 40, N-[[7-(5-bicyclo[2.2.1]hept-2-enylmethyl)-7-azaspiro[3.5]nonan-2-yl]methyl]-6-(2-chloro-5-fluoro-phenyl)pyridazin-3-amine], the remaining activity at 30 µM stood at 2.63% and the IC50 turned out to be 240 nM.
In the case of `Fc1ccc(Cl)c(-c2ccc(OCC3CC4(CCN(CC5CC6C=CC5C6)CC4)C3)nn2)c1` (stereo not drawn) [Compound 61, 7-(5-bicyclo[2.2.1]hept-2-enylmethyl)-2-[[6-(2-chloro-5-fluoro-phenyl)pyridazin-3-yl]oxymethyl]-7-azaspiro[3.5]nonane], the remaining activity at 30 µM worked out at 3.96% and the IC50 was determined as 250 nM.
As to `Cc1nn(C)cc1-c1ccc(NCC2CC3(CCN(Cc4ccccc4F)CC3)C2)nn1` [Compound 54, 6-(1,3-dimethylpyrazol-4-yl)-N-[[7-[(2-fluorophenyl)methyl]-7-azaspiro[3.5]nonan-2-yl]methyl]pyridazin-3-amine], the remaining activity at 30 µM stood at 6.27% and the IC50 is 1120 nM.
As to `Fc1ccc(Cl)c(-c2ccc(OC3CC4(CCN(CC5CCSCC5)CC4)C3)nn2)c1` [Compound 21, 2-[6-(2-chloro-5-fluoro-phenyl)pyridazin-3-yl]oxy-7-(tetrahydrothiopyran-4-ylmethyl)-7-azaspiro[3.5]nonane], the remaining activity at 30 µM came out at 3.22% and the IC50 was found to be 530 nM.
As to `Fc1ccc(Cl)c(-c2ccc(OC3CC4(CCN(CC5CCCOC5)CC4)C3)nn2)c1` (stereo not drawn) [Compound 20, 2-[6-(2-chloro-5-fluoro-phenyl)pyridazin-3-yl]oxy-7-(tetrahydropyran-3-ylmethyl)-7-azaspiro[3.5]nonane], the remaining activity at 30 µM came to 5.55% and the IC50 was found to be 1770 nM.
For `CC(CN1CCC2(CC1)CC(Oc1ccc(-c3cc(F)ccc3Cl)nn1)C2)C(C)(C)C` (stereo not drawn) [Compound 17, 2-[6-(2-chloro-5-fluoro-phenyl)pyridazin-3-yl]oxy-7-(2,3,3-trimethylbutyl)-7-azaspiro[3.5]nonane], the remaining activity at 30 µM amounted to 2.73% and the half-inhibitory concentration (IC50) worked out at 590 nM.
Consider `Cc1nn(C)cc1-c1ccc(NCC2CC3(CCN(Cc4ccccc4)CC3)C2)nn1` [Compound 53, N-[(7-benzyl-7-azaspiro[3.5]nonan-2-yl)methyl]-6-(1,3-dimethylpyrazol-4-yl)pyridazin-3-amine], for which the remaining activity at 30 µM came to 8.66% and the IC50 was found to be 2680 nM.
